Data from article PMC9404985, “Development of Dicationic Bisguanidine-Arylfuran Derivatives as Potent Agents against Gram-Negative Bacteria” (Antibiotics, 2022).

Columns and labels:
[1] = Cytotoxicity assay (PrestoBlue) MCF-7; assay type: cell-based; conditions: human, MCF-7 cells (breast cancer cell line), 24 h incubation
Description: (§1) The cytotoxicity levels of all compounds were evaluated against human Michigan Cancer Foundation-7 (MCF-7) and Hepatoma G2 cell line (HepG2) cell lines. MCF-7 is an extensively characterized breast cancer cell line isolated in 1970 [41], while HepG2 cells were derived from a hepatoma in 1975 [42]. Both cell lines grow robustly during in vitro culture and have been widely used for cytotoxicity testing. Cells of hepatic origin, such as HepG2, are of particular relevance for toxicity studies as many drugs accumulate in the liver during metabolic conversion. Cells were grown in Dulbecco’s Modified Eagle Medium supplemented with 10% fetal calf serum and kept in exponential growth, as previously reported. Before the assay, cells were reseeded into 96-well microtiter plates at a density allowing continued exponential growth and let to settle for 24 h. The compounds were added from a stock solution in DMSO, for a final concentration of 0.3% v/v of the solvent in the culture medium. After 24 h of incubation in presence of the compound, cell viability was assayed using PrestoBlue Cell Viability Reagent (resazurin-based solution, ThermoFisher, Waltham, MA, USA) according to the manufacturer’s instructions. […] Each assay contained a DMSO control at the equivalent starting concentration, positive control (uninhibited cell growth) and negative control (cell medium only). Survival was expressed as percentage of the solvent-only control. […] The Selectivity Index (SI) for each compound and bacterial strain was calculated as the ratio between the mean of the EC50 values for the two human cell lines and the EC50 for the bacterial strain in question ((EC50 MCF-7 + EC50 HepG2)/2)/EC50 bacterial strain).

[2] = Cytotoxicity assay (PrestoBlue) HepG2; assay type: cell-based; conditions: human, HepG2 cells (hepatoma cell line), 24 h incubation
Description: as §1

[3] = test system: B. subtilis (NBRC/ATCC #111470); assay: Antibacterial resazurin assay, laboratory strain; conditions: for EC50 / EC90: Bacillus subtilis, ATCC111470, 18 h; for EC50: read-out: Bsu EC50; for EC90: read-out: Bsu EC90
[4] = test system: E. coli MG1655 (CGSC #6300); assay: Antibacterial resazurin assay, laboratory strain; conditions: for EC50 / EC90: Escherichia coli, MG1655, 18 h; for EC50: read-out: Eco EC50; for EC90: read-out: Eco EC90; for Selectivity index E. coli: mean of MCF-7 and HepG2 EC50 over bacterial EC50, laboratory strain
[5] = test system: P. putida (NBRC/ATCC #100650); assay: Antibacterial resazurin assay, laboratory strain; conditions: for EC50 / EC90: Pseudomonas putida, ATCC100650, 18 h; for EC50: read-out: Ppu EC50, laboratory strain, 18 h, 37 °C, AlamarBlue; for EC90: read-out: Ppu EC90; for Selectivity index P. putida: mean of MCF-7 and HepG2 EC50 over bacterial EC50, laboratory strain
[6] = test system: P. carotovorum (NBRC/ATCC #3380); assay: Antibacterial resazurin assay, laboratory strain; conditions: for EC50 / EC90: Pectobacterium carotovorum, ATCC3380, 18 h; for EC50: read-out: Pcar EC50, laboratory strain, 18 h, 37 °C, AlamarBlue; for EC90: read-out: Pcar EC90; for Selectivity index P. carotovorum: mean of MCF-7 and HepG2 EC50 over bacterial EC50, laboratory strain
[7] = test system: P. caledonica (NBRC/ATCC #102488); assay: Antibacterial resazurin assay, laboratory strain; conditions: for EC50 / EC90: Paraburkholderia caledonica, ATCC102488, 18 h; for EC50: read-out: Pcal EC50; for EC90: read-out: Pcal EC90; for Selectivity index P. caledonica: mean of MCF-7 and HepG2 EC50 over bacterial EC50, laboratory strain

Structure (SMILES) | EC50 at 24 h [1] [µM] | EC50 at 24 h [2] [µM] | EC50 [3] [µM] | EC90 [3] [µM] | EC50 [4] [µM] | EC90 [4] [µM] | EC50 [5] [µM] | EC90 [5] [µM] | EC50 [6] [µM] | EC90 [6] [µM] | EC50 [7] [µM] | EC90 [7] [µM] | Selectivity index P. caledonica [7] | Selectivity index E. coli [4] | Selectivity index P. putida [5] | Selectivity index P. carotovorum [6] | Selectivity index B. subtilis ([3]; mean of MCF-7 and HepG2 EC50 over bacterial EC50, laboratory strain)
Nc1c(Nc2ccc(-c3ccc(-c4ccc(Nc5c(N)c(=O)c5=O)cc4)o3)cc2)c(=O)c1=O [Compound 12, 2,5-Bis(4-((3,4-dioxo-2-(amino)cyclobut-1-en-1-yl)amino)phenyl)furan] | > 1000 | > 1000 | > 300 | > 300 | > 300 | > 300 | > 300 | > 300 | > 300 | > 300 | > 300 | > 300 | – | – | – | – | –
Nc1c(Nc2ccc(-c3ccc(-c4ccc(Nc5c(N)c(=O)c5=O)cc4Cl)o3)c(Cl)c2)c(=O)c1=O [Compound 11, 2,5-Bis(2-chloro-4-((3,4-dioxo-2-(amino)cyclobut-1-en-1-yl)amino)phenyl)furan] | 508 | 183 | > 300 | > 300 | > 300 | > 300 | > 300 | > 300 | > 300 | > 300 | 19 | 60.1 | 18.2 | – | – | – | –
Cc1cc(Nc2c(N)c(=O)c2=O)ccc1-c1ccc(-c2ccc(Nc3c(N)c(=O)c3=O)cc2C)o1 [Compound 13, 2,5-Bis(2-methyl-4-((3,4-dioxo-2-(amino)cyclobut-1-en-1-yl)amino)phenyl)furan] | > 1000 | 137 | > 300 | > 300 | > 300 | > 300 | > 300 | > 300 | > 300 | > 300 | > 300 | > 300 | – | – | – | – | –
N=C(N)Nc1ccc(-c2ccc(-c3ccc(NC(=N)N)cc3C(F)(F)F)o2)c(C(F)(F)F)c1 [Compound 5, 2,5-Bis(4-guanidino-2-trifluoromethylphenyl)furan] | 23.2 | 69 | > 300 | > 300 | 29.4 | 59.1 | 290 | 319 | 185 | 233 | > 300 | > 300 | – | 1.6 | 0.2 | 0.2 | –
Nc1c(Nc2ccc(-c3ccc(-c4ccc(Nc5c(N)c(=O)c5=O)cc4C(F)(F)F)o3)c(C(F)(F)F)c2)c(=O)c1=O [Compound 14, 2,5-Bis(2-trifluoromethyl-4-((3,4-dioxo-2-(amino)cyclobut-1-en-1-yl)amino)phenyl)furan] | 173 | 185 | > 300 | > 300 | > 300 | > 300 | > 300 | > 300 | > 300 | > 300 | 90.4 | 305 | 2.0 | – | – | – | –
N#Cc1cc(NC(=N)N)ccc1-c1ccc(-c2ccc(NC(=N)N)cc2C#N)o1 [Compound 7, 2,5-Bis(2-cyano-4-guanidinophenyl)furan] | 46 | 78.9 | 146 | 562 | 59.3 | 350 | 24.5 | 51.5 | 212 | 268 | > 300 | > 300 | – | 1.1 | 2.5 | 0.3 | 0.4
